#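 The compound was tested at five concentrations on cells cultured in 96-well plates, with a 48-hour exposure period. GI50: concentration for 50% inhibition of growth. At the TGI there is no net growth.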
# Legend:
# Test in all cases: DTP human tumour cell line panel, 48 h
# BT-549 breast = system: BT-549 breast
# COLO 205 colon = system: COLO 205 colon
# EKVX NSCLC = system: EKVX NSCLC
# HCT-15 colon = system: HCT-15 colon
# HL-60(TB) leukemia = system: HL-60(TB) leukemia
# HOP-92 NSCLC = system: HOP-92 NSCLC
# MDA-MB-231 breast = system: MDA-MB-231 breast
# PC-3 prostate = system: PC-3 prostate
# RPMI-8226 leukemia = system: RPMI-8226 leukemia
# SF-539 CNS = system: SF-539 CNS
Compound,GI50 (BT-549 breast),TGI (BT-549 breast),GI50 (COLO 205 colon),TGI (COLO 205 colon),GI50 (EKVX NSCLC),TGI (EKVX NSCLC),GI50 (HCT-15 colon),TGI (HCT-15 colon),GI50 (HL-60(TB) leukemia),TGI (HL-60(TB) leukemia),GI50 (HOP-92 NSCLC),TGI (HOP-92 NSCLC),GI50 (MDA-MB-231 breast),TGI (MDA-MB-231 breast),GI50 (PC-3 prostate),TGI (PC-3 prostate),GI50 (RPMI-8226 leukemia),TGI (RPMI-8226 leukemia),GI50 (SF-539 CNS),TGI (SF-539 CNS)
CCN1CCC(CC(=O)Nc2n[nH]c3nnc(-c4cccc(F)c4F)cc23)CC1,> 25 µM,> 25 µM,22.3 µM,> 25 µM,> 25 µM,> 25 µM,> 25 µM,> 25 µM,> 25 µM,> 25 µM,> 25 µM,> 25 µM,> 25 µM,> 25 µM,> 25 µM,> 25 µM,> 25 µM,> 25 µM,> 18.9 µM,> 25 µM
COC(=O)C12CCC(C)(C)CC1C1=CCC3C4(C)CC(O)C(O)C(C)(C(=O)OC)C4CCC3(C)C1(CO)CC2 (stereo not given),–,28.8 µM,–,29.1 µM,–,44.1 µM,–,29.1 µM,–,> 100 µM,–,29.1 µM,–,33.5 µM,–,22 µM,–,40.9 µM,–,31.6 µM
N#CC(C#N)=CNCCN1CCN(C=C(C#N)C#N)CC1,–,> 100 µM,–,> 100 µM,–,> 100 µM,–,> 100 µM,–,> 100 µM,–,> 100 µM,–,> 100 µM,–,> 100 µM,–,> 100 µM,–,> 100 µM
COc1cc2c3c(n(CCCN4CCNCC4)c(=O)c2cc1OC)-c1cc2c(cc1C3=O)OCO2,1.4 µM,7.97 µM,3.06 µM,14 µM,8.51 µM,17.2 µM,0.296 µM,5.14 µM,0.00886 µM,0.746 µM,0.041 µM,1.28 µM,0.803 µM,2.23 µM,0.94 µM,10.1 µM,0.16 µM,1.63 µM,0.0399 µM,0.355 µM
O=C(/C=C/C12c3ccccc3C(c3ccccc31)C1C(=O)N(c3ccc(Cl)cc3)C(=O)C12)c1ccccn1 (stereo not given),0.171 µM,0.365 µM,0.49 µM,1.13 µM,0.381 µM,2.38 µM,0.206 µM,0.66 µM,0.24 µM,1.35 µM,0.452 µM,1.11 µM,0.318 µM,2.23 µM,0.331 µM,1.87 µM,0.234 µM,0.682 µM,0.258 µM,0.676 µM
Cc1ccc(C)c2c1C(=O)N(c1ccc(F)cc1F)C2=O,> 100 µM,> 100 µM,> 100 µM,> 100 µM,> 100 µM,> 100 µM,> 100 µM,> 100 µM,> 100 µM,> 100 µM,1.11 µM,> 100 µM,22.9 µM,> 100 µM,> 100 µM,> 100 µM,98.8 µM,> 100 µM,> 100 µM,> 100 µM
Cc1ccc(-c2nc3nc(-c4ccc(F)cc4)nc(N4CCNCC4)c3o2)cc1,13.6 µM,30.1 µM,2.1 µM,4.64 µM,4.53 µM,17.3 µM,1.67 µM,3.38 µM,1.91 µM,4.3 µM,4.5 µM,22.6 µM,1.86 µM,3.63 µM,1.91 µM,4.69 µM,2.36 µM,5.49 µM,1.67 µM,3.12 µM
COC(=O)C1=COC2OC3C(C(C)O)C(=O)OC34C=CC1C24 (stereo not given),–,> 100 µM,–,> 100 µM,–,> 100 µM,–,> 100 µM,–,39.7 µM,–,> 100 µM,–,> 100 µM,–,> 100 µM,–,90.8 µM,–,> 100 µM
NC(=O)c1cccc2c(N[C@H](CN3CCC3)c3ccc(Cl)c(C(F)(F)F)c3)ncnc12,0.657 µM,3.61 µM,0.837 µM,2.66 µM,0.878 µM,10.3 µM,0.947 µM,10.7 µM,2.13 µM,5.64 µM,0.14 µM,2.27 µM,2.44 µM,13.7 µM,0.638 µM,12.8 µM,2.69 µM,9.06 µM,0.154 µM,1.71 µM

# — PubChem BioAssay (NCI)
